Measurements from US10696615B2, “Prenylated hydroxystilbenes” (The University of Sydney, priority 2011, dated 2020).

Legend:
Type in all cases: cell-based, human
CCRF-CEM = assay: NCI in vitro cancer screen, Leukemia
HL-60 (TB) = assay: NCI in vitro cancer screen, Leukemia; settings: HL-60 (TB)
K-562 = assay: NCI in vitro cancer screen, Leukemia; settings: K-562
RPMI-8226 = assay: NCI in vitro cancer screen, Leukemia; settings: RPMI-8226
A549/ATCC = assay: NCI in vitro cancer screen, Non-Small Cell Lung Cancer
EKVX = assay: as above
HOP-62 = assay: as above; settings: HOP-62
NCI-H322M = assay: as above
COLO 205 = assay: NCI in vitro cancer screen, Colon Cancer; settings: COLO 205
HCC-2998 = assay: NCI in vitro cancer screen, Colon Cancer; settings: HCC-2998
HCT-116 = assay: NCI in vitro cancer screen, Colon Cancer; settings: HCT-116
HCT-15 = assay: NCI in vitro cancer screen, Colon Cancer; settings: HCT-15
HT29 = assay: NCI in vitro cancer screen, Colon Cancer; settings: HT29
SF-268 = assay: NCI in vitro cancer screen, CNS Cancer; settings: SF-268
SNB-75 = assay: NCI in vitro cancer screen, CNS Cancer; settings: SNB-75
M14 = assay: NCI in vitro cancer screen, Melanoma; settings: M14
SK-MEL-2 = assay: NCI in vitro cancer screen, Melanoma; settings: SK-MEL-2
SK-MEL-5 = assay: NCI in vitro cancer screen, Melanoma; settings: SK-MEL-5
UACC-62 = assay: NCI in vitro cancer screen, Melanoma; settings: UACC-62
OVCAR-3 = assay: NCI in vitro cancer screen, Ovarian Cancer; settings: OVCAR-3
OVCAR-4 = assay: NCI in vitro cancer screen, Ovarian Cancer; settings: OVCAR-4
OVCAR-5 = assay: NCI in vitro cancer screen, Ovarian Cancer; settings: OVCAR-5
OVCAR-8 = assay: NCI in vitro cancer screen, Ovarian Cancer; settings: OVCAR-8
ADR-RES (NCI/ADR-RES) = assay: NCI in vitro cancer screen, Ovarian Cancer
SK-OV-3 = assay: NCI in vitro cancer screen, Ovarian Cancer; settings: SK-OV-3
786-0 = assay: NCI in vitro cancer screen, Renal Cancer; settings: 786-0
ACHN = assay: NCI in vitro cancer screen, Renal Cancer
RXF-393 = assay: NCI in vitro cancer screen, Renal Cancer; settings: RXF-393
DU-145 = assay: NCI in vitro cancer screen, Prostate Cancer; settings: DU-145
HS 578T = assay: NCI in vitro cancer screen, Breast Cancer
T-47D = assay: NCI in vitro cancer screen, Breast Cancer
[1] = Homo sapiens, read-out: LC50 (the source's name)

For `CC(C)=CCc1c(O)cc(/C=C/c2ccc(O)cc2)c(CC=C(C)C)c1O` [USYDS6, (E)-2,4-di(3-methyl-2-buten-1-yl)-3,4′,5-trihydroxystilbene], the TGI (CCRF-CEM) was 9.17 µM, the GI50 (CCRF-CEM; Homo sapiens) was 2.96 µM and the CC50 (CCRF-CEM; [1]) was 82.1 µM. For the same compound, the TGI (HL-60 (TB)) was 4.83 µM, the GI50 (HL-60 (TB); Homo sapiens) was 2.07 µM and the CC50 (HL-60 (TB); [1]) was 15.4 µM. It also gave a GI50 (K-562; Homo sapiens, K562) of 1.46 µM, a CC50 (K-562; Homo sapiens, K562, read-out: LC50 (the source's name)) of 22.6 µM and a TGI (K-562) of 4.13 µM. For the same compound, the GI50 (RPMI-8226; Homo sapiens) was 2.34 µM, the CC50 (RPMI-8226; [1]) was 62 µM and the TGI (RPMI-8226) was 5.61 µM. It also gave a TGI (A549/ATCC) of 8.42 µM, a GI50 (A549/ATCC; Homo sapiens) of 2.69 µM and a CC50 (A549/ATCC; [1]) of 33.7 µM. For the same compound, the TGI (EKVX) was 21.4 µM, the GI50 (EKVX; Homo sapiens) was 7.19 µM and the CC50 (EKVX; [1]) was 54.4 µM. The TGI (HOP-62) was 17.5 µM, the GI50 (HOP-62; Homo sapiens) was 5.11 µM and the CC50 (HOP-62; [1]) was 44 µM. It also gave a TGI (NCI-H322M) of 25.5 µM, a GI50 (NCI-H322M; Homo sapiens) of 1.16 µM and a TGI (COLO 205) of 30.2 µM. For the same compound, the GI50 (COLO 205; Homo sapiens) was 16 µM, the CC50 (COLO 205; [1]) was 57.2 µM and the TGI (HCC-2998) was 8.78 µM. It also gave a GI50 (HCC-2998; Homo sapiens) of 2.81 µM, a CC50 (HCC-2998; [1]) of 32.2 µM and a TGI (HCT-116) of 3.78 µM. For the same compound, the GI50 (HCT-116; Homo sapiens) was 1.89 µM, the TGI (HCT-15) was 6.26 µM and the GI50 (HCT-15; Homo sapiens) was 2.13 µM. For the same compound, the CC50 (HCT-15; [1]) was 48.2 µM, the TGI (HT29) was 17.6 µM and the GI50 (HT29; Homo sapiens, HT-29) was 5.44 µM. The CC50 (HT29; Homo sapiens, HT-29, read-out: LC50 (the source's name)) was 48.3 µM, the GI50 (SF-268; Homo sapiens) was 2.78 µM and the CC50 (SF-268; [1]) was 44.3 µM. It also gave a TGI (SF-268) of 8.97 µM, a GI50 (SNB-75; Homo sapiens) of 6.67 µM and a CC50 (SNB-75; [1]) of 54 µM. It also gave a TGI (SNB-75) of 21.4 µM, a GI50 (M14; Homo sapiens) of 2.82 µM and a CC50 (M14; [1]) of 33.4 µM. For the same compound, the TGI (M14) was 8.46 µM, the GI50 (SK-MEL-2; Homo sapiens) was 13.1 µM and the TGI (SK-MEL-2) was 33.6 µM. The GI50 (SK-MEL-5; Homo sapiens) was 2.29 µM, the CC50 (SK-MEL-5; [1]) was 22.1 µM and the TGI (SK-MEL-5) was 6.17 µM. The GI50 (UACC-62; Homo sapiens) was 10.3 µM, the CC50 (UACC-62; [1]) was 53.8 µM and the TGI (UACC-62) was 23.5 µM. It also gave a GI50 (OVCAR-3; Homo sapiens) of 2.1 µM, a CC50 (OVCAR-3; [1]) of 8.85 µM and a TGI (OVCAR-3) of 4.31 µM. For the same compound, the GI50 (OVCAR-4; Homo sapiens) was 4.4 µM, the CC50 (OVCAR-4; [1]) was 43.5 µM and the TGI (OVCAR-4) was 16.1 µM. For the same compound, the GI50 (OVCAR-5; Homo sapiens) was 5.86 µM, the CC50 (OVCAR-5; [1]) was 53.3 µM and the TGI (OVCAR-5) was 20.0 µM. For the same compound, the GI50 (OVCAR-8; Homo sapiens) was 2.95 µM, the CC50 (OVCAR-8; [1]) was 42.9 µM and the TGI (OVCAR-8) was 9.51 µM. The TGI (ADR-RES (NCI/ADR-RES); ADR-RES) was 15.2 µM, the GI50 (ADR-RES (NCI/ADR-RES); Homo sapiens, NCI/ADR-RES) was 3.46 µM and the CC50 (ADR-RES (NCI/ADR-RES); Homo sapiens, NCI/ADR-RES, read-out: LC50 (the source's name)) was 51.2 µM. It also gave a GI50 (SK-OV-3; Homo sapiens) of 13.9 µM, a CC50 (SK-OV-3; [1]) of 53.2 µM and a TGI (SK-OV-3) of 27.1 µM. The TGI (786-0) was 6.96 µM, the GI50 (786-0; Homo sapiens) was 2.46 µM and the TGI (ACHN) was 14.6 µM. For the same compound, the GI50 (ACHN; Homo sapiens) was 3.94 µM, the CC50 (ACHN; [1]) was 50.4 µM and the GI50 (RXF-393; Homo sapiens) was 2.15 µM. It also gave a CC50 (RXF-393; [1]) of 18.7 µM, a TGI (RXF-393) of 5.39 µM and a TGI (DU-145) of 12.9 µM. It also gave a GI50 (DU-145; Homo sapiens) of 3.47 µM, a CC50 (DU-145; [1]) of 40.1 µM and a TGI (HS 578T) of 5.29 µM. The GI50 (HS 578T; Homo sapiens) was 1.67 µM, the CC50 (HS 578T; [1]) was 35.8 µM and the TGI (T-47D) was 20.3 µM. It also gave a GI50 (T-47D; Homo sapiens, T47D) of 5.03 µM and a CC50 (T-47D; Homo sapiens, T47D, read-out: LC50 (the source's name)) of 57.9 µM.
